# Assay results as given in ChEMBL document CHEMBL3808348, “Rational Design, Synthesis, and Biological Evaluation of 7-Azaindole Derivatives as Potent Focused Multi-Targeted Kinase Inhibitors” (J Med Chem, 2016).
# Legend:
# [1] = Antiproliferative activity against human PC3 cells after 72 hrs by MTT assay; format: functional, cell-based; conditions: PC-3, 72 h
# [2] = Antiproliferative activity against human Caki2 cells after 72 hrs by MTT assay; format: functional, cell-based; conditions: CAKI-2, 72 h
# MDA-MB-231 = test: Antiproliferative activity against human MDA-MB-231 cells after 72 hrs by MTT assay; format: functional, cell-based; conditions: MDA-MB-231, 72 h
# NCI-H1975 = test: Antiproliferative activity against human NCI-H1975 cells harboring EGFR L858R/T790M double mutant after 72 hrs by MTT assay; format: functional, cell-based; conditions: NCI-H1975, 72 h
# [3] = Antiproliferative activity against human BxPC3 cells after 72 hrs by MTT assay; format: functional, cell-based; conditions: BXPC-3, 72 h
# PBMC = test: Hematotoxicity in human PHA/IL2-stimulated PBMC; format: cell-based
# A549 = test: Antiproliferative activity against human A549 cells after 72 hrs by MTT assay; format: functional, cell-based; conditions: A549, 72 h
# HT-29 = test: Antiproliferative activity against human HT-29 cells after 72 hrs by MTT assay; format: functional, cell-based; conditions: HT-29, 72 h
# [4] = biological target: Fibroblast growth factor receptor 2 (Homo sapiens) (UniProt P21802); test: Inhibition of His-tagged human recombinant FGFR2 (403 to 822 residues) expressed in baculovirus using Fluorescein-Poly GT as substrate at 100 nM
# [5] = biological target: Serine/threonine-protein kinase B-raf (Homo sapiens) (UniProt P15056); test: Inhibition of full length GST-tagged human recombinant BRAF expressed in baculovirus using Fluorescein-MAP2K1 as substrate at 100 nM
# [6] = biological target: Epidermal growth factor receptor (Homo sapiens, UniProt P00533); test: Inhibition of GST-tagged human recombinant EGFR (668 to1210 residues) expressed in baculovirus using Fluorescein-Poly GT as substrate at 100 nM
# [7] = biological target: Platelet-derived growth factor receptor alpha (Homo sapiens, UniProt P16234); test: Inhibition of full length GST-tagged human recombinant PDGFRalpha expressed in baculovirus using Fluorescein-Poly GT as substrate at 100 nM
# [8] = biological target: Proto-oncogene tyrosine-protein kinase Src (Homo sapiens, UniProt P12931); test: Inhibition of full length His-tagged human recombinant cSRC expressed in baculovirus using Fluorescein-Poly GT as substrate at 100 nM
# [9] = biological target: Vascular endothelial growth factor receptor 2 (Homo sapiens) (UniProt P35968); test: Inhibition of full length His-tagged human recombinant VEGFR2 expressed in baculovirus using Fluorescein-Poly GT as substrate at 100 nM
# HepG2 = test: Antiproliferative activity against human HepG2 cells after 72 hrs by MTT assay; format: functional, cell-based; conditions: HepG2, 72 h
# HUVEC = test: Antiangiogenic activity in HUVEC after 72 hrs by MTT assay; format: functional, cell-based; conditions: Homo sapiens
# [10] = Antiangiogenic activity in HRMEC after 72 hrs by MTT assay; format: functional, Homo sapiens
# Sequence of Epidermal growth factor receptor (P00533 whole entry, the tested form may be a part): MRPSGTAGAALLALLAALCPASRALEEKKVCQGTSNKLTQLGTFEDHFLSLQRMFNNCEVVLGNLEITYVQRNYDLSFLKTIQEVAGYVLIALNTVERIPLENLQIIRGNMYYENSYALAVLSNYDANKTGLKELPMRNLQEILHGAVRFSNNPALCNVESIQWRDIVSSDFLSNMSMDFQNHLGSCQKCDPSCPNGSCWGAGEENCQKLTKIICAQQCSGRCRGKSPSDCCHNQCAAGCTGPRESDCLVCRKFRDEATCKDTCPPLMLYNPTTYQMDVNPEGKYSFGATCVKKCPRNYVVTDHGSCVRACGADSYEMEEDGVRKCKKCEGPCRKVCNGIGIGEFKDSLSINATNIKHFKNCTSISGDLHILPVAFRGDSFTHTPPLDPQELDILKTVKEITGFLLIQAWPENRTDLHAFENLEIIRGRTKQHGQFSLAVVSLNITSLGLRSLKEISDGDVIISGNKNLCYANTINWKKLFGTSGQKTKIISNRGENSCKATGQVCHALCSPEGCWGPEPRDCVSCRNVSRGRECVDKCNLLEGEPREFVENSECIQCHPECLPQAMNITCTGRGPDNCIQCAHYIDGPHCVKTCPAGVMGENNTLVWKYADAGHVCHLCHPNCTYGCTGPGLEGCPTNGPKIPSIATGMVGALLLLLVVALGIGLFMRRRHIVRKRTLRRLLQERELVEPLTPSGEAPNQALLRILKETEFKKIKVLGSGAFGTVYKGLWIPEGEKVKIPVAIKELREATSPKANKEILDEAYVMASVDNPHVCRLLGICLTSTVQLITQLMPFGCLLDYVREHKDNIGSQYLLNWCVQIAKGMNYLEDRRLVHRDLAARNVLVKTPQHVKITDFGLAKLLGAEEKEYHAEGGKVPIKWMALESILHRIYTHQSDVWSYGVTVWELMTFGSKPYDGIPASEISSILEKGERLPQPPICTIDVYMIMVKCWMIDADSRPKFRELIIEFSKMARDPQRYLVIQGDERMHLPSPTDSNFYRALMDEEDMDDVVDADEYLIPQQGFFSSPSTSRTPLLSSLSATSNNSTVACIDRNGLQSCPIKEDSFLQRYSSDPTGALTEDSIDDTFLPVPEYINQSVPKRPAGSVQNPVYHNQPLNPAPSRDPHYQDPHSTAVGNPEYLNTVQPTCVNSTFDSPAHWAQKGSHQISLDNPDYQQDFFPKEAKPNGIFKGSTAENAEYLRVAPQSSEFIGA
# Sequence of Vascular endothelial growth factor receptor 2 (Homo sapiens) (P35968 whole entry): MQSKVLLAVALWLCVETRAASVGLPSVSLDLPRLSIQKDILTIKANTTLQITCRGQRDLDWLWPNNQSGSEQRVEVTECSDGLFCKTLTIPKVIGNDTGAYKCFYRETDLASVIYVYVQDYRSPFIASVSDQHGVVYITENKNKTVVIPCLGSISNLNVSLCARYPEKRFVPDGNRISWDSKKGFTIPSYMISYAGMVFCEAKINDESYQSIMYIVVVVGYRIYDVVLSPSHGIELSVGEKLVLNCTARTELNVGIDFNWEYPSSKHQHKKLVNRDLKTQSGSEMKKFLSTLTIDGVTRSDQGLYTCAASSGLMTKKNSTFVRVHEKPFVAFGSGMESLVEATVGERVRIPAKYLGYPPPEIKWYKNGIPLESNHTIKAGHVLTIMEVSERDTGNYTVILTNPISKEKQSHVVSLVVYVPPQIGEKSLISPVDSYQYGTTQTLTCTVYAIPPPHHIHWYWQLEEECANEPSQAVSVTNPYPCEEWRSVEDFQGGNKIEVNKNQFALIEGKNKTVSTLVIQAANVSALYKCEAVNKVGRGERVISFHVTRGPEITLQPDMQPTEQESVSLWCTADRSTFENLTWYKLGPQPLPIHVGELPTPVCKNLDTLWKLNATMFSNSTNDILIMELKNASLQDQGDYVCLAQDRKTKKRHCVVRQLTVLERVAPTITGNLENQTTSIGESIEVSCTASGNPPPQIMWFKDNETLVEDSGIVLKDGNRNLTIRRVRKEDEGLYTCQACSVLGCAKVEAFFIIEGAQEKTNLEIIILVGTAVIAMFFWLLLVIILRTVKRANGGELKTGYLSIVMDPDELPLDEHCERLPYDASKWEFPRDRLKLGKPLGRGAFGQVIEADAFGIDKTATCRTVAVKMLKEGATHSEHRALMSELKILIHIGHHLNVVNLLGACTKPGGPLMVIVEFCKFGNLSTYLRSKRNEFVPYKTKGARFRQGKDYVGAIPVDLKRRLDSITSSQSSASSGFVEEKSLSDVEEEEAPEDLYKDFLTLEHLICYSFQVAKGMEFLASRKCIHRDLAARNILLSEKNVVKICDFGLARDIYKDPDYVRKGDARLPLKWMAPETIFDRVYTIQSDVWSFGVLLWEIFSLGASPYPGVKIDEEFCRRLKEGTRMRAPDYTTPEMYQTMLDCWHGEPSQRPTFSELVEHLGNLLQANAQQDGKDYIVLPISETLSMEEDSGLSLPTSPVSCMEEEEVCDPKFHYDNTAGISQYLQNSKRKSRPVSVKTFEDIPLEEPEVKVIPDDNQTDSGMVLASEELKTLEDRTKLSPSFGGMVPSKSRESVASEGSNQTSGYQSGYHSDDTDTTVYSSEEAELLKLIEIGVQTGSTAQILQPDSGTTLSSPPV
# Sequence of Fibroblast growth factor receptor 2 (Homo sapiens) (P21802 22-821 limits assumed): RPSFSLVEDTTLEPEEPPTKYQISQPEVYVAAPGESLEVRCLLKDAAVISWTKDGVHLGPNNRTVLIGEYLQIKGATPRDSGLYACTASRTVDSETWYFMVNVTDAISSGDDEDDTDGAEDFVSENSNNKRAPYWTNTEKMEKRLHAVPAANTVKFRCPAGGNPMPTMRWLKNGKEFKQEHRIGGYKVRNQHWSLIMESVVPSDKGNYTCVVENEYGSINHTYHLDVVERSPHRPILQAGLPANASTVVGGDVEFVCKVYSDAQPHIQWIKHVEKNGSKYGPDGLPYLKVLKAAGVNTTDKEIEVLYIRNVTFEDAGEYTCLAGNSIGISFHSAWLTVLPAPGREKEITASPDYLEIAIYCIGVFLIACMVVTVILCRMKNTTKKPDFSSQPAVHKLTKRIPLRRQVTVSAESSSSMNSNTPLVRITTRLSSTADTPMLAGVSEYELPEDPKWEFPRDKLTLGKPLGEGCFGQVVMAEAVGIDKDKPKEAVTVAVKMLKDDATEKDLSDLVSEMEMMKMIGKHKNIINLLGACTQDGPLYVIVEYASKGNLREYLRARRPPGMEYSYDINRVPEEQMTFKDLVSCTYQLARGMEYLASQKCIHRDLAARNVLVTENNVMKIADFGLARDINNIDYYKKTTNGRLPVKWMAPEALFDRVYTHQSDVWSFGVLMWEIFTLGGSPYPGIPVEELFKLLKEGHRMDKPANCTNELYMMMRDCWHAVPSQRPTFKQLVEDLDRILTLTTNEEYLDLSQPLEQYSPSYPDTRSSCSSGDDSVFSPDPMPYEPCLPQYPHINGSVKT
# Sequence of Proto-oncogene tyrosine-protein kinase Src (P12931 2-536 limits assumed): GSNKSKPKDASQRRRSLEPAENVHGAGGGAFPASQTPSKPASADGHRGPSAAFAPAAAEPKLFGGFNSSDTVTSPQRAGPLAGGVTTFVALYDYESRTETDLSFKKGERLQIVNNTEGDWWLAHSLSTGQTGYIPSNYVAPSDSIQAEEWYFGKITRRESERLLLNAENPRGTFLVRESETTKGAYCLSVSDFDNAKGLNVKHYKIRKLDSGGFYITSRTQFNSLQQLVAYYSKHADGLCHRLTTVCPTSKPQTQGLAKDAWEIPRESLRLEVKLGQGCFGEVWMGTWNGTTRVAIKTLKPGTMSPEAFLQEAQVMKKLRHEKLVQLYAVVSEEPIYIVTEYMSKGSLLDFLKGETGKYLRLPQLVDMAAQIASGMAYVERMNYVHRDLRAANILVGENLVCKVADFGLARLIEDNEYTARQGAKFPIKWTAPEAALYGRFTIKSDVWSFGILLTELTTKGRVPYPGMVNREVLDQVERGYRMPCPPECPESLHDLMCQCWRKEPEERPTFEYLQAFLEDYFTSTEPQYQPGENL
# Sequence of Serine/threonine-protein kinase B-raf (Homo sapiens) (P15056 whole entry, the tested form may be a part): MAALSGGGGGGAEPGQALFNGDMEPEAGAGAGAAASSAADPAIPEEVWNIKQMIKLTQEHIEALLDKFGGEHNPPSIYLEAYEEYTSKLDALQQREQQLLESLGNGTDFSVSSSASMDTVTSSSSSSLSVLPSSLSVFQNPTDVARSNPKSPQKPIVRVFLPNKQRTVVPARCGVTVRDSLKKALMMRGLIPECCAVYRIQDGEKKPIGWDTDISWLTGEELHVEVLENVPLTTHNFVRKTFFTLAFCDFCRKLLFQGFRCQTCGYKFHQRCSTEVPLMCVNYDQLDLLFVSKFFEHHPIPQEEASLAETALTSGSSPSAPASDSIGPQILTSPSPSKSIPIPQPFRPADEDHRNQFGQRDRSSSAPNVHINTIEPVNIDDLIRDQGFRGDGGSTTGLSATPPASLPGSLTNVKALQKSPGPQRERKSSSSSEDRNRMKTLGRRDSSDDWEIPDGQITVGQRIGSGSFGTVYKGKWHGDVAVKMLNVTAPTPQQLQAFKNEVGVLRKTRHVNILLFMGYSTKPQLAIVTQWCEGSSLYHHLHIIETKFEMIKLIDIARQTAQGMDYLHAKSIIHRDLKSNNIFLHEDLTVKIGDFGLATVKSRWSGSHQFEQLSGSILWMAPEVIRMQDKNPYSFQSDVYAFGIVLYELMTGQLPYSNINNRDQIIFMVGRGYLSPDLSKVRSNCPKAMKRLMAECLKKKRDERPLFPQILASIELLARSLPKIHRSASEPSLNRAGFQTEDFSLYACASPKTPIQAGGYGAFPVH
EC50 (MDA-MB-231),EC50 (NCI-H1975),EC50 (A549),EC50 (HT-29),inhibition [4],inhibition [5],inhibition [6],inhibition [7],inhibition [8],inhibition [9],EC50 (HepG2),Compound,EC50 [1],EC50 [2],EC50 [3],EC50 (PBMC),EC50 (HUVEC),EC50 [10]
> 1000 nM,> 1000 nM,–,–,–,–,–,–,–,–,–,CCN(CC)CCNC(=O)c1c(C)[nH]c(/C=C2\C(=O)Nc3ccc(F)cc32)c1C [SUNITINIB],> 1000 nM,> 1000 nM,> 1000 nM,–,–,–
44 nM,173 nM,–,–,–,–,–,–,–,–,–,Cc1nc(Nc2ncc(C(=O)Nc3c(C)cccc3Cl)s2)cc(N2CCN(CCO)CC2)n1 [DASATINIB],232 nM,55 nM,33 nM,1600 nM,–,–
–,–,> 1000 nM,> 1000 nM,–,–,–,–,–,–,–,CNC(=O)c1cc(Oc2ccc(NC(=O)Nc3ccc(Cl)c(C(F)(F)F)c3)c(F)c2)ccn1 [REGORAFENIB],–,–,–,–,–,–
–,–,293 nM,303 nM,81%,60%,83%,89%,97%,99%,248 nM,CC(=O)c1cc2cc(CCc3cc(NC(=O)c4ccc(CN5CCC(N(C)C)C5)c(C(F)(F)F)c4)ccc3C)cnc2[nH]1 (centres undefined),–,–,–,–,163 nM,304 nM
> 1000 nM,116 nM,–,–,–,–,–,–,–,–,–,CN(C)C/C=C/C(=O)Nc1cc2c(Nc3ccc(F)c(Cl)c3)ncnc2cc1O[C@H]1CCOC1 [AFATINIB],–,–,> 1000 nM,–,–,–
–,–,–,–,21%,60%,81%,85%,93%,73%,> 1000 nM,COC(=O)c1cc2cc(NCc3cc(NC(=O)c4ccc(CN5CCN(C)CC5)cc4)ccc3C)cnc2[nH]1,–,–,–,–,> 1000 nM,–
–,–,–,–,69%,15%,93%,96%,87%,86%,> 1000 nM,COC(=O)c1cc2cc(COc3cc(NC(=O)c4ccc(CN5CCC(N(C)C)C5)c(C(F)(F)F)c4)ccc3C)cnc2[nH]1 (centres undefined),–,–,–,–,426 nM,–
> 1000 nM,> 1000 nM,> 1000 nM,> 1000 nM,–,–,–,–,–,–,302 nM,CNC(=O)c1cc(Oc2ccc(NC(=O)Nc3ccc(Cl)c(C(F)(F)F)c3)cc2)ccn1 [SORAFENIB],–,> 1000 nM,> 1000 nM,–,718 nM,> 1000 nM
> 1000 nM,> 1000 nM,> 1000 nM,> 1000 nM,–,–,–,–,–,–,–,C#Cc1cccc(Nc2ncnc3cc(OCCOC)c(OCCOC)cc23)c1 [ERLOTINIB],> 1000 nM,> 1000 nM,> 1000 nM,–,–,> 1000 nM
–,–,–,–,101%,64%,97%,105%,101%,102%,> 1000 nM,COC(=O)c1cc2cc(CCc3cc(NC(=O)c4ccc(CN5CCC(N(C)C)C5)c(C(F)(F)F)c4)ccc3C)cnc2[nH]1 (centres undefined),–,–,–,–,171 nM,–
–,–,–,–,94%,46%,76%,94%,100%,93%,977 nM,COC(=O)c1cc2cc(NC(=O)c3cc(NC(=O)c4ccc(CN5CCC(N(C)C)C5)c(C(F)(F)F)c4)ccc3C)cnc2[nH]1 (centres undefined),–,–,–,–,631 nM,–
–,–,495 nM,227 nM,98%,93%,101%,94%,99%,87%,179 nM,CNC(=O)c1cc2cc(NCc3cc(NC(=O)c4ccc(CN5CCC(N(C)C)C5)c(C(F)(F)F)c4)ccc3C)cnc2[nH]1 (centres undefined),–,–,–,–,83 nM,81 nM
–,–,204 nM,150 nM,58%,56%,94%,73%,91%,71%,275 nM,CC(=O)c1cc2cc(NCc3cc(NC(=O)c4ccc(CN5CCC(N(C)C)C5)c(C(F)(F)F)c4)ccc3C)cnc2[nH]1 (centres undefined),–,–,–,–,97 nM,179 nM
–,–,–,–,75%,92%,80%,90%,96%,96%,673 nM,COC(=O)c1cc2cc(NCc3cc(NC(=O)c4ccc(CN5CCC(N(C)C)C5)c(C(F)(F)F)c4)ccc3C)cnc2[nH]1 (centres undefined),–,–,–,–,689 nM,–
–,–,–,–,3%,77%,40%,91%,68%,58%,> 1000 nM,COC(=O)c1cc2cc(NCc3cc(NC(=O)c4ccc5c(c4)OCO5)ccc3C)cnc2[nH]1,–,–,–,–,298 nM,–
